Data on 9 compounds can be found in ChEMBL document CHEMBL1155516, “Biochemical and structural analysis of the binding determinants of a vascular endothelial growth factor receptor peptidic antagonist” (J Med Chem, 2010).

The structures appear in SMILES notation. Calls of active or inactive are those of the source. No cut-off for these calls is given here. Where a SMILES comes first, the peptide text is derived from it. Bridges are numbered along the chain shown (N, C = ends).

Experiment [1] addresses Vascular endothelial growth factor receptor 2 (Homo sapiens) (UniProt P35968). Description: Inhibition of VEGFR2 phosphorylation in VEGF165-stimulated HUVEC at 100 uM treated for 1 hr before VEGF165 challenge measured after 5 mins by Western blot analysis. The experiment is classed as cell-based. A general note: A western blot detects proteins with antibodies after separation by electrophoresis.

Experiment [2] relates to HUVEC. The conditions noted are these: Homo sapiens, 10 uM.
Experiment [3] addresses Vascular endothelial growth factor receptor 2 (Homo sapiens) (UniProt P35968). Description: Inhibition of VEGFR2 phosphorylation in VEGF165-stimulated HUVEC treated for 1 hr before VEGF165 challenge measured after 5 mins by Western blot analysis. It counts as cell-based.
Experiment [4] has the same target. Description: Inhibition of VEGFR2 phosphorylation in VEGF165-stimulated HUVEC at 10 uM treated for 1 hr before VEGF165 challenge measured after 5 mins by Western blot analysis. It counts as cell-based.
Experiment [5] deals with HUVEC. The settings on record: Homo sapiens, 33 uM.
Description: Inhibition of VEGFR in HUVEC assessed as inhibition of VEGF165-induced ERK1/2 phosphorylation at 33 uM treated for 1 hr before VEGF165 challenge measured after 15 mins by Western blot analysis
Experiment [6] deals with HUVEC. The conditions noted are these: Homo sapiens, 100 uM.
Description: Inhibition of VEGFR in HUVEC assessed as inhibition of VEGF165-induced ERK1/2 phosphorylation at 100 uM treated for 1 hr before VEGF165 challenge measured after 15 mins by Western blot analysis
For experiment [7], the target named is Vascular endothelial growth factor receptor 2 (Homo sapiens) (UniProt P35968). Description: Inhibition of VEGFR2 phosphorylation in VEGF165-stimulated HUVEC at 3 uM treated for 1 hr before VEGF165 challenge measured after 5 mins by Western blot analysis.
Experiment [8] concerns HUVEC. The conditions noted are these: Homo sapiens, 3 uM.
Description: Inhibition of VEGFR in HUVEC assessed as inhibition of VEGF165-induced ERK1/2 phosphorylation at 3 uM treated for 1 hr before VEGF165 challenge measured after 15 mins by Western blot analysis
The target of experiment [9] is Vascular endothelial growth factor receptor 2 (Homo sapiens) (UniProt P35968). The experiment is described as follows: Inhibition of VEGFR2 phosphorylation in VEGF165-stimulated HUVEC at 33 uM treated for 1 hr before VEGF165 challenge measured after 5 mins by Western blot analysis. The experiment is classed as cell-based.
For experiment [10] the target is unchanged. The experiment is described as follows: Binding affinity to human recombinant VEGFR2 extracellular domain immobilized in CNBr-activated sepharose at 25 nmol after 5 mins by pull-down assay.

Sequence of Vascular endothelial growth factor receptor 2 (Homo sapiens) (P35968 whole entry, the tested form may be a part): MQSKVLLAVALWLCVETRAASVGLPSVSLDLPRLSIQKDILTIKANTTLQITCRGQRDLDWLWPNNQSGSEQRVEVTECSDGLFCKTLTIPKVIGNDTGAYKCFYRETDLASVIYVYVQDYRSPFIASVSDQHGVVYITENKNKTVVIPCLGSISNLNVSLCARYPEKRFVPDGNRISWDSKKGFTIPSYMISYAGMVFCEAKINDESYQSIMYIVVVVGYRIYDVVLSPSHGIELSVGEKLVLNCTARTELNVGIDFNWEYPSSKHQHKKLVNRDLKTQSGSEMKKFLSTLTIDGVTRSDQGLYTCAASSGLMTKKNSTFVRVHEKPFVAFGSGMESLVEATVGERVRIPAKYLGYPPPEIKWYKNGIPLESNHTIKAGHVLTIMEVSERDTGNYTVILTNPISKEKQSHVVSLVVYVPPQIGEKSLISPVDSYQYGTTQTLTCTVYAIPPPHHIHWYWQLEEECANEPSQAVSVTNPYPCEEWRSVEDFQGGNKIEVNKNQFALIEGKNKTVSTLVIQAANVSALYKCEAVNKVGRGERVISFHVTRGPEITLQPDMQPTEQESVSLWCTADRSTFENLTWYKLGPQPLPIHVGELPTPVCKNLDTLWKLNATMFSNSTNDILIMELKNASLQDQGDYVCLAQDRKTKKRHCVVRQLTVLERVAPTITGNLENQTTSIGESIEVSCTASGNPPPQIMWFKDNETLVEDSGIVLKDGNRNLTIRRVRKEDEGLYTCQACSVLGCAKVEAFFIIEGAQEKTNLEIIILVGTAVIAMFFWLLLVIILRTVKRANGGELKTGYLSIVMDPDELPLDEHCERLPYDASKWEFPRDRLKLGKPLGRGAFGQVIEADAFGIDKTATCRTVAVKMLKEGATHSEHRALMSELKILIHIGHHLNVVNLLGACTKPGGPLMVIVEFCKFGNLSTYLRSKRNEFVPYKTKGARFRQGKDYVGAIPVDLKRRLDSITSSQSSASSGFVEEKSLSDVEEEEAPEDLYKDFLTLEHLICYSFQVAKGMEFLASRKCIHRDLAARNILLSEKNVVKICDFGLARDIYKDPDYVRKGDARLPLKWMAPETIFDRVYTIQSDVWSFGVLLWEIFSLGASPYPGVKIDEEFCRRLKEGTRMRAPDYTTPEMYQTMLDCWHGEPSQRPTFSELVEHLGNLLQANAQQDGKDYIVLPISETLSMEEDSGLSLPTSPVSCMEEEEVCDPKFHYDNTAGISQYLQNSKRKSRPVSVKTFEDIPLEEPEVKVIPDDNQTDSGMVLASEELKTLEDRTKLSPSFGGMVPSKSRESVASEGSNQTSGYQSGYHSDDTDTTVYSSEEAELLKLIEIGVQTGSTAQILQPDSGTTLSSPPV

Turning to `CC(C)C[C@@H]1NC(=O)CNC(=O)[C@H](CCC(=O)O)NC(=O)[C@H](CC(=O)O)NC(=O)[C@H](Cc2ccc(O)cc2)NC(=O)[C@H](C)NC(=O)CC[C@@H](C(N)=O)NC(=O)[C@H](CCC(=O)O)NC1=O` (AYDEGLEE-NH2; lactam N-8), the inhibition result in experiment [1] was “inactive”.
Same read-out and setting: under `CC(C)C[C@@H]1NC(=O)CNC(=O)[C@H](CCC(=O)O)NC(=O)[C@H](CC(=O)O)NC(=O)[C@H](C)NC(=O)[C@H](Cc2ccc(O)cc2)NC(=O)CC[C@@H](C(N)=O)NC(=O)[C@H](CCC(=O)O)NC1=O` (YADEGLEE-NH2; lactam N-8) stands “inactive”; under `CC(C)C[C@@H]1NC(=O)CNC(=O)[C@H](CCC(=O)O)NC(=O)[C@H](CC(=O)O)NC(=O)[C@H](CCCCN)NC(=O)[C@H](Cc2ccc(O)cc2)NC(=O)CC[C@@H](C(N)=O)NC(=O)[C@H](CCC(=O)O)NC1=O` (YKDEGLEE-NH2; lactam N-8), “Active”.
With `CC(C)C[C@@H]1NC(=O)CNC(=O)[C@H](C)NC(=O)[C@H](CC(=O)O)NC(=O)[C@H](Cc2ccc(O)cc2)NC(=O)[C@H](Cc2ccc(O)cc2)NC(=O)CC[C@@H](C(N)=O)NC(=O)[C@H](CCC(=O)O)NC1=O` (YYDAGLEE-NH2; lactam N-8), the inhibition result in experiment [1] is “inactive”.
Still for that read-out and setting: under `C[C@@H]1NC(=O)CNC(=O)[C@H](CCC(=O)O)NC(=O)[C@H](CC(=O)O)NC(=O)[C@H](Cc2ccc(O)cc2)NC(=O)[C@H](Cc2ccc(O)cc2)NC(=O)CC[C@@H](C(N)=O)NC(=O)[C@H](CCC(=O)O)NC1=O` (YYDEGAEE-NH2; lactam N-8) stands “inactive”; under `CC(C)C[C@@H]1NC(=O)CNC(=O)[C@H](CCC(=O)O)NC(=O)[C@H](CC(=O)O)NC(=O)[C@H](Cc2ccc(O)cc2)NC(=O)[C@H](Cc2ccc(O)cc2)NC(=O)CC[C@@H](C(N)=O)NC(=O)[C@H](C)NC1=O` (YYDEGLAE-NH2; lactam N-8), “inactive”.
`CC(C)C[C@@H]1NC(=O)CNC(=O)[C@H](CCC(=O)O)NC(=O)[C@H](CC(=O)O)NC(=O)[C@H](Cc2ccc(O)cc2)NC(=O)[C@H](Cc2ccc(O)cc2)NC(=O)CC[C@@H](C(N)=O)NC(=O)[C@H](CCC(=O)O)NC1=O` (YYDEGLEE-NH2; lactam N-8): the inhibition result (in the experiment on HUVEC [2]; in experiment [4]; with HUVEC [5]; in experiment [1]; in the experiment with HUVEC [6]; in experiment [9]) was “Active” each time. Further, in experiment [3], the inhibition result was “Dose-dependent effect”. In addition, the inhibition entry (in experiment [7]; with HUVEC [8]) was “inactive” throughout.
Turning to `CC(C)C[C@@H]1NC(=O)[C@H](CCCCN)NC(=O)[C@H](CCC(=O)O)NC(=O)[C@H](CC(=O)O)NC(=O)[C@H](Cc2ccc(O)cc2)NC(=O)[C@H](Cc2ccc(O)cc2)NC(=O)CC[C@@H](C(N)=O)NC(=O)[C@H](CCC(=O)O)NC1=O` (YYDEKLEE-NH2; lactam N-8), the inhibition entry in experiment [1] is “Active”.
On to `CC(C)C[C@@H]1NC(=O)CNC(=O)[C@H](CCC(=O)O)NC(=O)[C@H](CCCCN)NC(=O)[C@H](Cc2ccc(O)cc2)NC(=O)[C@H](Cc2ccc(O)cc2)NC(=O)CC[C@@H](C(N)=O)NC(=O)[C@H](CCC(=O)O)NC1=O` (YYKEGLEE-NH2; lactam N-8), for which the inhibition entry in experiment [1] was “Active”. Besides, in experiment [10], the result was inactive.
